Data from patent US20230024521A1, “JAK INHIBITORS” (Vimalan Biosciences, Inc., priority 2019, published 2023).

Columns and labels:
JAK2 = JAK2 (Homo sapiens, UniProt O60674); assay: JAK/TYK2 assay (Kinase Glo luminescence): Jak2 kinase assay; assay type: biochemical; conditions: 0.8 nM enzyme, 2 uM ATP, 4 uM pEY, 1 hr; read-out: Jak2 kinase assay: IC50 Geomean
Experimental: (§1) Example A: JAK/TYK2 Assay 10 mM test compound stock or 1 mM control compound stock (tofocitinib, ruxolitinib or staurosporine) in DMSO was diluted to 0.4 mM in DMSO. A 3-fold series dilution was then performed in DMSO to generate 10 different compound concentrations. The assay was carried out in 384-well white plate. 0.5 μL of 40× compound DMSO solution at different concentrations was mixed with 10 uL 2× enzyme prepared in reaction buffer (20 mM HEPES, 10 mM MgCl2, 0.01% Tween, 1 mM DTT, pH 7.5). 10 uL 2× substrate mixture prepared in reaction buffer was then added to start the reaction. A short spin was done to settle down all solutions to the bottom of the plate. Final concentrations of test compound in the reaction mixture were 10000, 3333, 1111, 370, 123, 41.2, 13.7, 4.57, 1.52 and 0.51 nM, Concentrations of control compound were ten times less. Enzymatic reaction was conducted at 25° C. for 1-2 hours. 10 uL of Kinase Glo Reagents was added to stop the reaction and generate the luminescent signal which was measured using Envision. Luminescence signal was inversely related to kinase activity. […] The mixture without any compound was the positive control. [table]

JAK1 = JAK1 (Homo sapiens, UniProt P23458); assay: JAK/TYK2 assay (Kinase Glo luminescence): Jak1 kinase assay; assay type: biochemical; conditions: 7.5 nM enzyme, 2 uM ATP, 30 uM IRS-1, 1 hr
Experimental: as §1

[1] = tested on: JAK2: GM-CSF stimulated STAT5 phosphorylation; assay: Co-stimulation assay in lysed whole blood; JAK2: GM-CSF stimulated STAT5 phosphorylation; assay type: cell-based, human; conditions: Homo sapiens, read-out: GMCSF/J2/pS5: GeoMean (nM)
Experimental: Example C: Co-Stimulation Assay in Lysed Whole Blood; JAK2: GM-CSF Stimulated STAT5 Phosphorylation and JAK1/TYK2 Stimulated STAT1 Phosphorylation Assay
Human Blood Lysis using abcam's RBC lysis buffer
Dilute RBC lysis buffer to 1× in distilled water. Add 2 mL blood to 38 mL of 1×RBC-lysis buffer. Incubate for 15 mins at RT, in dark. Spin at 300 g, 5 mins, to collect the pellet. Re-lyse if necessary. Re-suspend pellet in 5 mL of cRPMI.
Aliquot 80 μL of lysed human blood in to wells of 96 deep-well plate. Add 10 μl of (10× conc.) of different concentrations of compounds to all wells except controls (unstained and unstimulated) and mix it with the help of 100 uL multichannel Add 10 uL of RPMI media in controls. For dilution of compounds and dilution range please refer Appendix. Incubate on water bath or CO2 incubator for 1 hour at 37° C. Add 10 μl of (10× conc.) of cytokine mix (GM-CSF and IFNa) (final conc. 10 ng/mL of GM-CSF and 100 ng/mL of IFNa) to each well except unstimulated and unstained controls and incubate further for 20 minutes on water bath at 37° C.
Add 900 μL of prewarmed 1× Fix/Lyse solution (Appendix) and mix it properly using 1000 μl multichannel, incubate further on water bath at 37° C. for 10 minutes (which includes time of addition). Centrifuge at 800×g for 5 minutes at 40° C.; remove 900 uL of supernatant and add 900 μL of 1×PBS. Centrifuge at 800×g for 5 minutes at 40° C., remove 900 μL of supernatant. Wash one more time with 900 μL of PBS (optional) and resuspend pellets in 100 uL of PBS.
Disrupt the pellet by gentle tapping and resuspend in 1000 μL of BD Phosflow Perm Buffer III and incubate plate on ice for 30 minutes. Centrifuge plate at 800×g for 5 minutes at 40° C. Wash two more times with 1000 μL of BD Pharmingen Stain Buffer.
Disrupt the pellet by gentle tapping. Resuspend pellets in 100 uL of Stain Buffer and add 5 μL of pSTAT5_AF488 Ab and 5 uL of pSTAT1_PE in all wells except unstained control and mix properly using 200 μl multichannel, incubate overnight at […]. Add 900 μL of wash buffer and centrifuge at 1800 rpm for 3 minutes at […]. Wash one more time with 1000 μL of BD Pharmingen Stain Buffer. Finally resuspend the pellet in 300 uL of BD Pharmingen Stain Buffer. Transfer the cells to 96-well v-bottom plate and acquire the cells in Beckman Coulter CytExpert. Acquiring cells in Flow Cytometer: Keep the threshold value to 250 and cell concentration should not exceed 100-500 cells/4. Acquire at least 5,000-10,000 cells.
RPMI 1640 Complete Medium: RPMI 1640 media+10% FBS.
Cytokine dilution: 1) GM-CSF Stock at 100 ug/mL. Prepare an intermediate dilution of 1 ug/mL by adding 2 uL of stock into 198 uL of cRPMI. Further dilute to 100 ng/mL by adding 100 uL of the intermediate stock to 900 uL of cRPMI. 2) IFNa Stock at 200 ug/mL. Dilute IFNa stock 1:200 by adding 5 uL of stock into the 1000 uL of 100 ng/mL GM-CSF working stock as above to give a combined working stock of 1000 ng/mL of IFNa and 100 ng/mL GM-CSF (10×). Keep it on ice until used.
Lyse/Fix buffer preparation: Dilute 5× Lyse/Fix buffer to 1× using MQ water and keep at 37° C. until used.
BD Phosflow perm buffer III: Keep on ice/fridge

JAK3 = biological target: T1, JAK3 (Homo sapiens, UniProt P52333); assay: JAK/TYK2 assay (Kinase Glo luminescence): Jak3 kinase assay; assay type: biochemical; conditions: 1.5 nM enzyme, 2 uM ATP, 4 uM pEY, 1 hr; read-out: Jak3 kinase assay: IC50 Geomean
T1 sequence (P52333 1-1124): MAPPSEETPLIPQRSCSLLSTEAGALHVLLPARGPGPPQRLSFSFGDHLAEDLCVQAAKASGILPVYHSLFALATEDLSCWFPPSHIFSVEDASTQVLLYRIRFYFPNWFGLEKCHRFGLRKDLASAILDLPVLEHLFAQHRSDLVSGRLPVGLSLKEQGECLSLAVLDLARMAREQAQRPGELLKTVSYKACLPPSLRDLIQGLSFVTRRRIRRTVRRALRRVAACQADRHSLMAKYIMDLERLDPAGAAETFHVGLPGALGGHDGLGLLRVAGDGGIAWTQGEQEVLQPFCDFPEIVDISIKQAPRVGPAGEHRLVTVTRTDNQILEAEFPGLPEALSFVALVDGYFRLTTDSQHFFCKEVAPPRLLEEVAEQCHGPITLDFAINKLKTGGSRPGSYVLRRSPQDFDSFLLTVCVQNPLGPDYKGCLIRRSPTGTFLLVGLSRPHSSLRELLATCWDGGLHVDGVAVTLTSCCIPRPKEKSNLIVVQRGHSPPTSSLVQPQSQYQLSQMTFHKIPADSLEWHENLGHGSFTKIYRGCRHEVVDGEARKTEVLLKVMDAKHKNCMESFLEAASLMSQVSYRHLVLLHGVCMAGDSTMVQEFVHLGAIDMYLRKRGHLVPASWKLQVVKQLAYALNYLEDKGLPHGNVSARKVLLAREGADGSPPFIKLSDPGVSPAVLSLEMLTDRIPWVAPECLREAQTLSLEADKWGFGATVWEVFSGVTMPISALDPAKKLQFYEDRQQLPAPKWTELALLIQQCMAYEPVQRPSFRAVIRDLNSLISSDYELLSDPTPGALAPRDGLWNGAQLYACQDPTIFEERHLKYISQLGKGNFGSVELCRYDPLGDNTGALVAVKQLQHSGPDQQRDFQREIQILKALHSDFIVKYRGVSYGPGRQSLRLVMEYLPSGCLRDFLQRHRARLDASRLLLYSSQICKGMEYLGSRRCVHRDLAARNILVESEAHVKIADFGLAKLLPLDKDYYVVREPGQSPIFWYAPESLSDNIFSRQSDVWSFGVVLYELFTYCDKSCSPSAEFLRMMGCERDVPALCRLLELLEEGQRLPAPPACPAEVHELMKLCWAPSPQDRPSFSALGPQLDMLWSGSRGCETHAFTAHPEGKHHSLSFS
Experimental: as §1

TYK2 = TYK2 (Homo sapiens, UniProt P29597); assay: JAK/TYK2 assay (Kinase Glo luminescence): Tyk2 kinase assay; assay type: biochemical; conditions: 9 nM enzyme, 2 uM ATP, 30 uM IRS-1, 1 hr; read-out: Tyk2 kinase assay: IC50 Geomean
Experimental: as §1

Sequence of TYK2 (P29597 whole entry, species assumed): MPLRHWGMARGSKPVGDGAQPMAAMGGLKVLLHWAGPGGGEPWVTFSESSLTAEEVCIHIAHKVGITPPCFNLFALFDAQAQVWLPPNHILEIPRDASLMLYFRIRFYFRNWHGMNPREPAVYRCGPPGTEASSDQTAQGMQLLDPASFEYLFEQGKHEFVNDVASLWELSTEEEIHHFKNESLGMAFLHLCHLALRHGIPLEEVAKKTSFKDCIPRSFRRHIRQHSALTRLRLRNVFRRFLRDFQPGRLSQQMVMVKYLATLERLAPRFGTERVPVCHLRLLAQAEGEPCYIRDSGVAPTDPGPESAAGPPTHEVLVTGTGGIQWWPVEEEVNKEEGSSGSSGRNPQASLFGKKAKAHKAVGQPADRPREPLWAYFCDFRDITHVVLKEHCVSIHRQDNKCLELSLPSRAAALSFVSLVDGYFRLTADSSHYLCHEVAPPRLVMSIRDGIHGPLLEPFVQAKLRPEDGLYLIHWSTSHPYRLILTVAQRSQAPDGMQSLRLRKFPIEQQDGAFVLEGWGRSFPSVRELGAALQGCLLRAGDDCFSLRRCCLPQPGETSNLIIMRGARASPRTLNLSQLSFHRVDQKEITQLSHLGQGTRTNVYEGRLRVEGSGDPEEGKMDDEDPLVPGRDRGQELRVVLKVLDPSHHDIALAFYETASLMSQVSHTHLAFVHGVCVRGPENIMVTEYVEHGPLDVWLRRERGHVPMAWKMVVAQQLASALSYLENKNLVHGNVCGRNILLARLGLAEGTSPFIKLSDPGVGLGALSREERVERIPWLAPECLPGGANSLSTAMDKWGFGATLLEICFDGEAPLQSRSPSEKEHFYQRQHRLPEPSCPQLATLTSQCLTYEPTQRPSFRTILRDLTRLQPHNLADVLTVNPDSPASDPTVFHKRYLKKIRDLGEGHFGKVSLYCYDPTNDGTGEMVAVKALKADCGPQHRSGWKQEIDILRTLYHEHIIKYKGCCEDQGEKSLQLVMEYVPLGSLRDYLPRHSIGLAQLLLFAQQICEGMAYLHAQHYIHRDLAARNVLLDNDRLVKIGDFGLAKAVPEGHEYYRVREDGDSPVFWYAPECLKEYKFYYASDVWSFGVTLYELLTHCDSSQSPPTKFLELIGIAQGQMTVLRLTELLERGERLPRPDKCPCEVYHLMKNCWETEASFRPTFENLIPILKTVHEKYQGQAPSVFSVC
Sequence of JAK2 (O60674 whole entry, species assumed): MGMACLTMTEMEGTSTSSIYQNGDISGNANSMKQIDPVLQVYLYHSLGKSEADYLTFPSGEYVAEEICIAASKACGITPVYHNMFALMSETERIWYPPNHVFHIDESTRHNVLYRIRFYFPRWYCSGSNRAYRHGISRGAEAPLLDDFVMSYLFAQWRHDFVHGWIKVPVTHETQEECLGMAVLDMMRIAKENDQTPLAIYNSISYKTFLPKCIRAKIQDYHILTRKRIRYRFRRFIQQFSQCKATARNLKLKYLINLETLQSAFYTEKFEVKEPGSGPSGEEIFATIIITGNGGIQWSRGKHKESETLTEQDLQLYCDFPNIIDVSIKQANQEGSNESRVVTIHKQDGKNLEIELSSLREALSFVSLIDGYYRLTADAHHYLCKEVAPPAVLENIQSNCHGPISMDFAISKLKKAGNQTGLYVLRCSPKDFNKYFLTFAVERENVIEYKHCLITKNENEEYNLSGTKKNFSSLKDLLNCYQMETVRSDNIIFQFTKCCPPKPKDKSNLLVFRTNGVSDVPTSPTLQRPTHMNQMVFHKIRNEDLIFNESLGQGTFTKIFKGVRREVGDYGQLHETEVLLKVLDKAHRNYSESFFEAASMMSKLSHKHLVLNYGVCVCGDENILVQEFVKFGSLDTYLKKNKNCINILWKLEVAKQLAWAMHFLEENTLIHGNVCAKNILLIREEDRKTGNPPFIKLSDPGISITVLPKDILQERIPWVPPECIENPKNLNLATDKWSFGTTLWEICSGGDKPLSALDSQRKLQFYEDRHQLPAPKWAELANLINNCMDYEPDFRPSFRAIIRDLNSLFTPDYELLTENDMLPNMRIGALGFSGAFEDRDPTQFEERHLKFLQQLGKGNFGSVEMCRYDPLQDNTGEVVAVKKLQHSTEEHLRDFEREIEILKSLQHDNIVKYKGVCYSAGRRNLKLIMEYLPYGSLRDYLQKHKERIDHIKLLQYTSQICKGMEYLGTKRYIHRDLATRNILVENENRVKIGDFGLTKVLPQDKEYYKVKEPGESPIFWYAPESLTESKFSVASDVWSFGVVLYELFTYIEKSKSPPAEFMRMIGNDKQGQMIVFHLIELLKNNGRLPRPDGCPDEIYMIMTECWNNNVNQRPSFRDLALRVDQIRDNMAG
Sequence of JAK1 (P23458 whole entry, species assumed): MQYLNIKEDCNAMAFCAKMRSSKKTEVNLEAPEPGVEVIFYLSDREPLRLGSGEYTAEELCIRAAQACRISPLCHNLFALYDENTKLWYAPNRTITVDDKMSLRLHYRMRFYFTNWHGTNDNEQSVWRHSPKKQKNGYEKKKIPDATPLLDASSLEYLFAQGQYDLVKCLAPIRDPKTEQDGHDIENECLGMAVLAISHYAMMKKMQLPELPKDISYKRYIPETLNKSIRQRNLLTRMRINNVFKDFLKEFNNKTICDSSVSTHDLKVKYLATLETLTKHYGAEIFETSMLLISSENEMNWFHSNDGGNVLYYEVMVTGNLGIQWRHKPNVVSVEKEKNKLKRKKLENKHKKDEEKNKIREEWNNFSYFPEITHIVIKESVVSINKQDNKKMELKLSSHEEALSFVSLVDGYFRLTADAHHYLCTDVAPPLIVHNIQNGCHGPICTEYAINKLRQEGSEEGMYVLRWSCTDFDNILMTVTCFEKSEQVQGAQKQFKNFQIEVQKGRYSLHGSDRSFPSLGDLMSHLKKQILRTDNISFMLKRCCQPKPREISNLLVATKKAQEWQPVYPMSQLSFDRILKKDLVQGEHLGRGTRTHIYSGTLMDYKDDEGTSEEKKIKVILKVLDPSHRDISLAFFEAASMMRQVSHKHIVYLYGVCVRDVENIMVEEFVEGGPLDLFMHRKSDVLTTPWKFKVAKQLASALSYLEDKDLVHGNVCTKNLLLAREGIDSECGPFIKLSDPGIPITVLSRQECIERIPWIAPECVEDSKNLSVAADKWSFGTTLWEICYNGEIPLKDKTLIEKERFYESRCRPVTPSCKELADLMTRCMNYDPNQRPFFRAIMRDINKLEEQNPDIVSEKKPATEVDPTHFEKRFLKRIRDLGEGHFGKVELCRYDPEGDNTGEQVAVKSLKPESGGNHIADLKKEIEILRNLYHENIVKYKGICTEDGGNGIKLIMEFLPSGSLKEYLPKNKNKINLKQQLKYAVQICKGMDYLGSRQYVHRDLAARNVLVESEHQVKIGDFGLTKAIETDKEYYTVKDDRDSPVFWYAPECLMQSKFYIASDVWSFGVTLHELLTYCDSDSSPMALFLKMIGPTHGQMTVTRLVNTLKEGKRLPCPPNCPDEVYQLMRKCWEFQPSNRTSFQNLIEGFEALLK

Row | SMILES | IC50 (JAK2) [nM] | IC50 (JAK1) [nM] | IC50 [1] [nM] | IC50 (JAK3) [nM] | IC50 (TYK2) [nM]
1 | CC[C@H](Cn1ccc2cnc(Nc3cnn(CC(=O)Nc4ccncc4)c3)nc21)C(C)C [Example 2, (5)-2-(4-((7-(2-ethyl-3-methylbutyl)-7H-pyrrolo[2,3-d]pyrimidin-2-yl)amino)-1H-pyrazol-1-yl)-N-(pyridin-4-yl) acetamide] | < 100 | < 100 | 1000 to 10000 | < 100 | < 100
2 | CC[C@H](Cn1ccc2cnc(Nc3cnn(CC(=O)N(C)S(C)(=O)=O)c3)nc21)C(C)C [Example 4, (5)-2-(4-((7-(2-ethyl-3-methylbutyl)-7H-pyrrolo[2,3-d]pyrimidin-2-yl)amino)-1H-pyrazol-1-yl)-N-methyl-N-(methylsulfonyl) acetamide] | < 100 | < 100 | 100 to 1000 | < 100 | < 100
3 | CCC(CC)Cn1ccc2cnc(Nc3cnn(CC(=O)N(C)C)c3)nc21 [Example 5, 2-(4-((7-(2-ethylbutyl)-7H-pyrrolo[2,3-d]pyrimidin-2-yl)amino)-1H-pyrazol-1-yl)-N, N-dimethylacetamide] | < 100 | < 100 | 1000 to 10000 | < 100 | < 100
4 | CCC(CC)Cn1ccc2cnc(Nc3cnn(CC(=O)NC)c3)nc21 [Example 6, 2-(4-((7-(2-ethylbutyl)-7H-pyrrolo[2,3-d]pyrimidin-2-yl)amino)-1H-pyrazol-1-yl)-N-methylacetamide] | < 100 | < 100 | 100 to 1000 | < 100 | < 100
